Each structure is given as a SMILES string.

The target of the test is T1, DGK α kinase (Homo sapiens, UniProt P23743).
T1 construct: purchased Reaction Biology Corp. (contract assay service)
T1 sequence (P23743 whole entry): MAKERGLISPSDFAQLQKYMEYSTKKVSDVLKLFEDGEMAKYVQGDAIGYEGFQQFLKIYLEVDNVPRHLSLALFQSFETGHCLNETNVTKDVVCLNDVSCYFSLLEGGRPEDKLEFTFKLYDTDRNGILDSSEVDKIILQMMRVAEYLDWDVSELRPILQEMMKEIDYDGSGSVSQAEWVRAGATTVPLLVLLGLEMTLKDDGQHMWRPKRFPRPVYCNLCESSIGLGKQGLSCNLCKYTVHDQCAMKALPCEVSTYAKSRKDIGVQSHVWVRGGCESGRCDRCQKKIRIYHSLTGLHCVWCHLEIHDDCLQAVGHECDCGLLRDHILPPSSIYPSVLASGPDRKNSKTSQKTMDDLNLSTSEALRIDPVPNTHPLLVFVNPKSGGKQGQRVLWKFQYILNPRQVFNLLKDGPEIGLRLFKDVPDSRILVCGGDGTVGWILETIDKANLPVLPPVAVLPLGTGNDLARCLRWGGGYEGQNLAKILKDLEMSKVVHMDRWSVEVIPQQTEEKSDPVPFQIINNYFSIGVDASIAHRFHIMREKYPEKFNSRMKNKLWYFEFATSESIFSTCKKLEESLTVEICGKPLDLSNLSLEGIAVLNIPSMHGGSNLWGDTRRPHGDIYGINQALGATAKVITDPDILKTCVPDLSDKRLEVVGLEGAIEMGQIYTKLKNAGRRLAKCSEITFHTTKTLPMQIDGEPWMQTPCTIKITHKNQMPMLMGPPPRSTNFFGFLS
The test can be described thus: DGKalpha kinase ADP Glo assay run by Reaction Biology Corp. The format is biochemical. The conditions noted are these: 2 nM kinase, 50 µM ATP, 500 μM DLG, 10-dose duplicate. On the procedure: DGK α and ζ kinases use ATP to phosphorylate the substrate 1,2-dilauroyl-sn-glycerol (DLG). ATP is converted to ADP as a result of this enzymatic reaction.
After the kinase reaction, an ATP-depletion reagent is added to terminate the kinase reaction and deplete any remaining ATP, leaving only ADP. Second, a detection reagent is added to simultaneously convert ADP to ATP and allow the newly synthesized ATP to be converted to light using a coupled luciferase/luciferin reaction.
DGK α and ζ kinase ADP Glo assays were ran by Reaction Biology Corp., 1 Great Valley Parkway, Suite 2, Malvern, 19355, PA, USA. Information provided by the service provider are the following: DGK α and ζ kinases were used at 2 nM final concentration. Reactions were carried out at 50 µM ATP. 500 μM of the substrate DLG (Dilauroyl-sn-glycerol) was used.
`CC(N)(c1nnc(-c2ccc3c(c2)N(Cc2ccc(-c4noc(C(F)(F)F)n4)cc2)C(=O)[C@@H](N)CS3(=O)=O)o1)C(F)(F)F` (stereo partly drawn) [Example 32, (3R)-3-amino-7-[5-(1-amino-2,2,2-trifluoro-1-methyl-ethyl)-1,3,4-oxadiazol-2-yl]-1,1-dioxo-5-[[4-[5-(trifluoromethyl)-1,2,4-oxadiazol-3-yl]phenyl]methyl]-2,3-dihydro-1λ^6,5-benzothiazepin-4-one] displayed an IC50 of 173 nM. Take `CC(C)(C#N)c1nnc(-c2cc3c(cc2F)S(=O)(=O)C[C@H](N)C(=O)N3Cc2ccc(-c3ccc(C(F)(F)F)cn3)cc2)o1` [Example 88, 2-[5-[(3R)-3-amino-8-fluoro-1,1,4-trioxo-5-[[4-[5-(trifluoromethyl)-2-pyridyl]phenyl]methyl]-2,3-dihydro-1λ^6,5-benzothiazepin-7-yl]-1,3,4-oxadiazol-2-yl]-2-methyl-propanenitrile]: 11.1 nM corresponded to half-maximal inhibition (IC50). Turning to `N[C@H]1CS(=O)(=O)c2ccc(-c3nnc(C4(C5CC5)CCCO4)o3)cc2N(Cc2ccc(-c3noc(C(F)(F)F)n3)cc2)C1=O` (stereo partly drawn) [Example 36, (3R)-3-amino-7-[5-(2-cyclopropyl-tetrahydrofuran-2-yl)-1,3,4-oxadiazol-2-yl]-1,1-dioxo-5-[[4-[5-(trifluoromethyl)-1,2,4-oxadiazol-3-yl]phenyl]methyl]-2,3-dihydro-1λ^6,5-benzothiazepin-4-one], inhibition was half-maximal at 58.5 nM (IC50). Next, `CC(O)(c1nnc(-c2ccc3c(c2)N(Cc2ccc(-c4noc(C(F)(F)F)n4)cc2)C(=O)[C@@H](N)CS3(=O)=O)o1)C(F)(F)F` (stereo partly drawn) [Example 96, (3R)-3-amino-1,1-dioxo-7-[5-(2,2,2-trifluoro-1-hydroxy-1-methyl-ethyl)-1,3,4-oxadiazol-2-yl]-5-[[4-[5-(trifluoromethyl)-1,2,4-oxadiazol-3-yl]phenyl]methyl]-2,3-dihydro-1λ^6,5-benzothiazepin-4-one]: 44.7 nM; `N[C@H]1CS(=O)(=O)c2ccc(-c3nnc(C4(N)CCCCC4)o3)cc2N(Cc2ccc(-c3noc(C(F)(F)F)n3)cc2)C1=O` [Example 39, (3R)-3-amino-7-[5-(1-aminocyclohexyl)-1,3,4-oxadiazol-2-yl]-1,1-dioxo-5-[[4-[5-(trifluoromethyl)-1,2,4-oxadiazol-3-yl]phenyl]methyl]-2,3-dihydro-1λ^6,5-benzothiazepin-4-one]: 94.6 nM. To `CC(C)(C)c1nnc(-c2ccc3c(c2)N(Cc2ccc(-c4nnc(C(F)(F)F)o4)cc2)C(=O)[C@@H](N)CS3(=O)=O)o1` [Example 24, (3R)-3-amino-7-(5-tert-butyl-1,3,4-oxadiazol-2-yl)-1,1-dioxo-5-[[4-[5-(trifluoromethyl)-1,3,4-oxadiazol-2-yl]phenyl]methyl]-2,3-dihydro-1λ^6,5-benzothiazepin-4-one] belongs 282 nM.

The record behind these values is patent publication US20260138976A1 (Hoffmann-La Roche Inc., priority 2022, published 2026).
